Experimental data reported in US20100279997A1, “ANALGESIC THAT BINDS FILAMIN A” (priority 2009, published 2010).
Like-named read-outs stand apart in the source and are kept apart here.

What was measured:
μ opiate receptor (MOR) = biological target: T1, μ opiate receptor (MOR) (Rattus norvegicus, UniProt P33535); experiment: MOR agonist activity, [35S]GTPγS binding assay using striatal membranes; type: biochemical; conditions: for [35S]GTPγS binding to Gαo, FLNA-binding compound as agonist 0.1 μM: 0.1 μM compound; for [35S]GTPγS binding to Gαo, FLNA-binding compound as agonist 0.1 μM / [35S]GTPγS binding to Gαo, FLNA-binding compound as agonist 1 μM: striatal membranes; for [35S]GTPγS binding to Gαo, FLNA-binding compound as agonist 1 μM + BFNA: 1 μM compound + 1 μM β-funaltrexamine; for [35S]GTPγS binding to Gαo, FLNA-binding compound as agonist 1 μM: 1 μM compound; for % DAMGO + BFNA: relative to DAMGO + BFNA; for % DAMGO (0.1 μM) / % DAMGO (1 μM): relative to DAMGO
T1 construct: from tissue; host or cells: striatal tissue (membrane preparation)
T1 sequence (P33535 whole entry): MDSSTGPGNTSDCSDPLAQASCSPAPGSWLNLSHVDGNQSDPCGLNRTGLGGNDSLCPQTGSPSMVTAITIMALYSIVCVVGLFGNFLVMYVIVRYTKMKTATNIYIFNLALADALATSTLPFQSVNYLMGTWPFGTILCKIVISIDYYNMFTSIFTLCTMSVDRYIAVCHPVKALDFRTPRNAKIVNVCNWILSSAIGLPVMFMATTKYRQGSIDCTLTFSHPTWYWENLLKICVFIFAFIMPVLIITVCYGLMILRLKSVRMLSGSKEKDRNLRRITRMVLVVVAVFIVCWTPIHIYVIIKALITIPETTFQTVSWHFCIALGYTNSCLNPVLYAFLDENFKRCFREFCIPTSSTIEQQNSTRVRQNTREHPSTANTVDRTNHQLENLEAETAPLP
Protocol: To assess the μ opiate receptor (MOR) agonist activity of positive compounds from the FLNA screening, compounds were tested in a [^35S]GTPγS binding assay using striatal membranes.
Striatal tissue was homogenized in 10 volumes of ice cold 25 mM HEPES buffer, pH 7.4, which contained 1 mM EGTA, 100 mM sucrose, 50 μg/ml leupeptin, 0.04 mM PMSF, 2 μg/ml soybean trypsin inhibitor and 0.2% 2-mercaptoethanol. The homogenates were centrifuged at 800×g for 5 minutes and the supernatants were centrifuged at 49,000×g for 20 minutes. The resulting pellets were suspended in 10 volume of reaction buffer, which contained 25 mM HEPES, pH 7.5, 100 mM NaCl, 50 μg/ml leupeptin, 2 μg/ml soybean trypsin inhibitor, 0.04 mM PMSF and 0.02% […].
The resultant striatal membrane preparation (200 μg) was admixed and maintained (incubated) at 30° C. for 5 minutes in reaction buffer as above that additionally contained 1 mM MgCl2 and 0.5 nM [^35S]GTPγS (0.1 μCi/assay, PerkinElmer Life and Analytical Sciences) in a total volume of 250 μl and continued for 5 minutes in the absence or presence of 0.1-10 μM of an assayed compound of interest. The reaction was terminated by dilution with 750 μl of ice-cold reaction buffer that contained 20 mM MgCl2 and 1 mM EGTA and immediate centrifugation at 16,000×g for 5 minutes.
The resulting pellet was solubilized by sonicating for 10 seconds in 0.5 ml of immunoprecipitation buffer containing 0.5% digitonin, 0.2% sodium cholate and 0.5% NP-40. Normal rabbit serum (1 μl) was added to 1 ml of lysate and incubated at 25° C. for 30 minutes. Nonspecific immune complexes were removed by incubation with 25 μl of protein A/G-conjugated agarose beads at 25° C. for 30 minutes followed by centrifugation at 5,000×g at 4° C. for 5 minutes. The supernatant was divided and separately incubated at 25° C. for 30 minutes with antibodies raised against Gao proteins (1:1,000 dilutions).
The immunocomplexes so formed were collected by incubation at 25° C. for 30 minutes with 40 μl of agarose-conjugated protein A/G beads and centrifugation at 5,000×g at 4° C. for 5 minutes. The pellet was washed and suspended in buffer containing 50 mM Tris-HCl, pH 8.0, and 1% NP-40. The radioactivity in the suspension was determined by liquid scintillation spectrometry. […] DAMGO (H-Tyr-D-Ala-Gly-N-MePhe-Gly-OH; 1 or 10 μM) was used as a positive control.

[1] = biological target: Bn-VAKGL pentapeptide of filamin A (FLNA) (Homo sapiens, UniProt P21333); experiment: FITC-NLX-based FLNA screening assay (FLNA peptide binding assay)
Protocol: The final assay volume is 100 μl.
Compounds are tested in triplicate or quadruplicate.

[2] = Mouse hot-water tail-flick test; type: in vivo; conditions: for mean maximum antinociception / time of maximum antinociception (peak activity): oral, 56 mg/kg
Protocol: The mouse “tail flick” test was used to assay the relative antinociceptive activity of compositions containing a compound to be assayed. This assay was substantially that disclosed by Xie et al., 2005 J. Neurosci 25:409-416.
The mouse hot-water tail-flick test was performed by placing the distal third of the tail in a water bath maintained at 52° C. The latency until tail withdrawal from the bath was determined and compared among the treatments. A 10 second cutoff was used to avoid tissue damage. Data are converted to percentage of antinociception by the following formula: (response latency−baseline latency)/(cutoff−baseline latency)×100 to generate dose-response curves. […] Relative potency was determined as a ratio of the A50 values.
To assess tolerance to the antinociceptive effect, the compound was administered twice daily for 7 days at an A90 dose (dose that results in a 90% antinociceptive effect in the 52° C. warm-water tail-flick test), and the tail-flick test was performed daily after the a.m. dose.

[3] = read-out: Percent inhibition of FITC-NLX binding, 0.01 μM, 0.01 μM compound, 10 nM FITC-NLX
[4] = read-out: Percent inhibition of FITC-NLX binding, 0.1 μM, 0.1 μM compound, 10 nM FITC-NLX
[5] = read-out: Percent inhibition of FITC-NLX binding, 1 μM, 1 μM compound, 10 nM FITC-NLX

COc1ccc(OCC(O)CN2CCc3cc4c(c(OC)c3C2)OCO4)cc1 (centres unmarked) [Compound A0070]
[35S]GTPγS binding to Gαo, FLNA-binding compound as agonist 0.1 μM (μ opiate receptor (MOR)): 128.6%
[35S]GTPγS binding to Gαo, FLNA-binding compound as agonist 1 μM + BFNA (μ opiate receptor (MOR)): 80.3%
[35S]GTPγS binding to Gαo, FLNA-binding compound as agonist 1 μM (μ opiate receptor (MOR)): 195.3%
% DAMGO + BFNA (μ opiate receptor (MOR)): 232.8%
% DAMGO (0.1 μM) (μ opiate receptor (MOR)): 74.7%
% DAMGO (1 μM) (μ opiate receptor (MOR)): 88.9%
inhibition at 0.01 µM [1, 3]: 32.9%
inhibition at 0.1 µM [1, 4]: 39.1%
inhibition at 1 µM [1, 5]: 41.7%

COc1ccc(OCC(O)CN2CCCc3ccccc32)cc1 (centres unmarked) [Compound A0067]
[35S]GTPγS binding to Gαo, FLNA-binding compound as agonist 0.1 μM (μ opiate receptor (MOR)): 170.8%
[35S]GTPγS binding to Gαo, FLNA-binding compound as agonist 1 μM + BFNA (μ opiate receptor (MOR)): 33.9%
[35S]GTPγS binding to Gαo, FLNA-binding compound as agonist 1 μM (μ opiate receptor (MOR)): 254.4%
% DAMGO + BFNA (μ opiate receptor (MOR)): 98.3%
% DAMGO (0.1 μM) (μ opiate receptor (MOR)): 99.2%
% DAMGO (1 μM) (μ opiate receptor (MOR)): 115.8%
inhibition at 0.01 µM [1, 3]: 32.7%
inhibition at 0.1 µM [1, 4]: 39.1%
inhibition at 1 µM [1, 5]: 44.3%

CC1CN(CC(O)COc2ccccc2C(C)C)CC(C)O1 (centres unmarked) [Compound A0029]
[35S]GTPγS binding to Gαo, FLNA-binding compound as agonist 0.1 μM (μ opiate receptor (MOR)): 173.8%
[35S]GTPγS binding to Gαo, FLNA-binding compound as agonist 1 μM + BFNA (μ opiate receptor (MOR)): 22.3%
[35S]GTPγS binding to Gαo, FLNA-binding compound as agonist 1 μM (μ opiate receptor (MOR)): 206.5%
inhibition at 0.1 µM [1, 4]: 44.4%

CC1CCC(C(C)C)C(OCC(O)CN2CCOc3ccccc32)C1 (centres unmarked) [Compound A0066]
[35S]GTPγS binding to Gαo, FLNA-binding compound as agonist 0.1 μM (μ opiate receptor (MOR)): 151.9%
[35S]GTPγS binding to Gαo, FLNA-binding compound as agonist 1 μM + BFNA (μ opiate receptor (MOR)): 59.2%
[35S]GTPγS binding to Gαo, FLNA-binding compound as agonist 1 μM (μ opiate receptor (MOR)): 195.6%
% DAMGO + BFNA (μ opiate receptor (MOR)): 171.6%
% DAMGO (0.1 μM) (μ opiate receptor (MOR)): 88.3%
% DAMGO (1 μM) (μ opiate receptor (MOR)): 89.0%
inhibition at 0.01 µM [1, 3]: 36.7%
inhibition at 0.1 µM [1, 4]: 45.4%
inhibition at 1 µM [1, 5]: 53.7%

CC1CCC(C(C)C)C(OCC(O)CN2CCN(CCN3CCOCC3)CC2)C1 (centres unmarked) [Compound A0011]
[35S]GTPγS binding to Gαo, FLNA-binding compound as agonist 0.1 μM (μ opiate receptor (MOR)): 236.3%
[35S]GTPγS binding to Gαo, FLNA-binding compound as agonist 1 μM + BFNA (μ opiate receptor (MOR)): 47.0%
[35S]GTPγS binding to Gαo, FLNA-binding compound as agonist 1 μM (μ opiate receptor (MOR)): 287.5%
mean maximum antinociception [2]: about 38%

COc1ccc(OCC(O)CN2CCc3ccccc32)cc1 (centres unmarked) [Compound A0069]
inhibition at 0.01 µM ([1]; read-out: Percent inhibition of FITC-NLX binding, 0.01 μM): 32%
inhibition at 0.1 µM ([1]; read-out: Percent inhibition of FITC-NLX binding, 0.1 μM): 40.4%
inhibition at 1 µM ([1]; read-out: Percent inhibition of FITC-NLX binding, 1 μM): 46.1%

CC1CN(CC(O)COc2cccc(F)c2)CC(C)O1 (centres unmarked) [Compound A0049]
[35S]GTPγS binding to Gαo, FLNA-binding compound as agonist 0.1 μM (μ opiate receptor (MOR)): 232.3%
[35S]GTPγS binding to Gαo, FLNA-binding compound as agonist 1 μM + BFNA (μ opiate receptor (MOR)): 107.1%
[35S]GTPγS binding to Gαo, FLNA-binding compound as agonist 1 μM (μ opiate receptor (MOR)): 370.3%
mean maximum antinociception [2]: about 45%

CN1CC[C@]23c4c5ccc(O)c4O[C@H]2[C@@H](O)C=C[C@H]3[C@H]1C5 [morphine, reference compound]
mean maximum antinociception [2]: about 43%
time of maximum antinociception (peak activity) [2]: about 20 minutes
time of maximum antinociception (peak activity) ([2]; listed as Morphine): twenty
A50 (dose that resulted in a 50% antinociceptive effect), with 95% CI ([2]; orally administered, 52° C. tail flick): 61.8 (52.4-72.9) mg/kg

CC1CCCC(OCC(O)CN2CC(C)OC(C)C2)C1 (centres unmarked) [Compound A0021]
[35S]GTPγS binding to Gαo, FLNA-binding compound as agonist 0.1 μM (μ opiate receptor (MOR)): 133.3%
[35S]GTPγS binding to Gαo, FLNA-binding compound as agonist 1 μM + BFNA (μ opiate receptor (MOR)): 12.1%
[35S]GTPγS binding to Gαo, FLNA-binding compound as agonist 1 μM (μ opiate receptor (MOR)): 275.3%
mean maximum antinociception [2]: about 25%

COc1ccc(OCC(O)CN2CCC(=O)CC2)cc1 (centres unmarked) [Compound A0071]
[35S]GTPγS binding to Gαo, FLNA-binding compound as agonist 0.1 μM (μ opiate receptor (MOR)): 225.7%
[35S]GTPγS binding to Gαo, FLNA-binding compound as agonist 1 μM + BFNA (μ opiate receptor (MOR)): 239.4%
[35S]GTPγS binding to Gαo, FLNA-binding compound as agonist 1 μM (μ opiate receptor (MOR)): 310.9%
% DAMGO + BFNA (μ opiate receptor (MOR)): 1088.2%
% DAMGO (0.1 μM) (μ opiate receptor (MOR)): 128.2%
% DAMGO (1 μM) (μ opiate receptor (MOR)): 122.9%
inhibition at 0.01 µM [1, 3]: 44.7%
inhibition at 0.1 µM [1, 4]: 46.8%
inhibition at 1 µM [1, 5]: 53.9%
